Data reported in ChEMBL document CHEMBL5696442, “Discovery of type II inhibitors of TGFβ-activated kinase 1 (TAK1) and mitogen-activated protein kinase kinase kinase kinase 2 (MAP4K2)” (J Med Chem, 2015).
The source made the active and inactive calls. The calls are words filed in the database; no cut-off is given here.

Tests used:
[1] = target: Ephrin type-B receptor 3 (Homo sapiens) (UniProt P54753); test: Inhibition of EPHB3 (unknown origin) at 10 uM by Ambit Kinomescan binding assay
[2] = test system: Fibroblast growth factor receptor 3 (Homo sapiens), P22607 [G697C]; test: Inhibition of FGFR3 G697C mutant (unknown origin) at 10 uM by Ambit Kinomescan binding assay relative to control
Chain of Fibroblast growth factor receptor 3 (Homo sapiens), P22607 [G697C] (P22607 whole entry G697C): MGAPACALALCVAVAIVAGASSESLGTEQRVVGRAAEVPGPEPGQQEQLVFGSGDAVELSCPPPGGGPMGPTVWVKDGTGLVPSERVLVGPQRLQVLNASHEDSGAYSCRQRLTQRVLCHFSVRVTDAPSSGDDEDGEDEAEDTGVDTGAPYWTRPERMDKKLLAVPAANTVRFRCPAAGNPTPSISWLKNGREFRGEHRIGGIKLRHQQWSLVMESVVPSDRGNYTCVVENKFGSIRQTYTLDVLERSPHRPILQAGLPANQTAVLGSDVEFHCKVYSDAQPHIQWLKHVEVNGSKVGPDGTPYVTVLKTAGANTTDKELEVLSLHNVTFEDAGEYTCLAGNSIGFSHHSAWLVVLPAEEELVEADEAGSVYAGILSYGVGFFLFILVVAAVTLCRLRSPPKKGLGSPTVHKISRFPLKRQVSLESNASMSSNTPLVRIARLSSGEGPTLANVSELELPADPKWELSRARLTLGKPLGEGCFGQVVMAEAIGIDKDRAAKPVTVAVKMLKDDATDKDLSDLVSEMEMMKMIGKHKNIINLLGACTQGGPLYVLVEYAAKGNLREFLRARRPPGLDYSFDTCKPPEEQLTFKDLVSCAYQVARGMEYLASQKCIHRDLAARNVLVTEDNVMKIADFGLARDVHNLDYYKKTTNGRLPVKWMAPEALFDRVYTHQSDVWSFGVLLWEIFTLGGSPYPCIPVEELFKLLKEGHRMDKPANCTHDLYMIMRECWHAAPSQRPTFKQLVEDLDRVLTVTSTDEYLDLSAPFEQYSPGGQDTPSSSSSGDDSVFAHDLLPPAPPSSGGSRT

[3] = target: Microtubule-associated serine/threonine-protein kinase 3 (Homo sapiens) (UniProt O60307); test: Inhibition of MAST3 Lys2 labeling site in human A-375 cells at 0.5 uM by KiNativ Profiling analysis relative to control; type: cell-based
Chain of Microtubule-associated serine/threonine-protein kinase 3 (Homo sapiens) (O60307 whole entry): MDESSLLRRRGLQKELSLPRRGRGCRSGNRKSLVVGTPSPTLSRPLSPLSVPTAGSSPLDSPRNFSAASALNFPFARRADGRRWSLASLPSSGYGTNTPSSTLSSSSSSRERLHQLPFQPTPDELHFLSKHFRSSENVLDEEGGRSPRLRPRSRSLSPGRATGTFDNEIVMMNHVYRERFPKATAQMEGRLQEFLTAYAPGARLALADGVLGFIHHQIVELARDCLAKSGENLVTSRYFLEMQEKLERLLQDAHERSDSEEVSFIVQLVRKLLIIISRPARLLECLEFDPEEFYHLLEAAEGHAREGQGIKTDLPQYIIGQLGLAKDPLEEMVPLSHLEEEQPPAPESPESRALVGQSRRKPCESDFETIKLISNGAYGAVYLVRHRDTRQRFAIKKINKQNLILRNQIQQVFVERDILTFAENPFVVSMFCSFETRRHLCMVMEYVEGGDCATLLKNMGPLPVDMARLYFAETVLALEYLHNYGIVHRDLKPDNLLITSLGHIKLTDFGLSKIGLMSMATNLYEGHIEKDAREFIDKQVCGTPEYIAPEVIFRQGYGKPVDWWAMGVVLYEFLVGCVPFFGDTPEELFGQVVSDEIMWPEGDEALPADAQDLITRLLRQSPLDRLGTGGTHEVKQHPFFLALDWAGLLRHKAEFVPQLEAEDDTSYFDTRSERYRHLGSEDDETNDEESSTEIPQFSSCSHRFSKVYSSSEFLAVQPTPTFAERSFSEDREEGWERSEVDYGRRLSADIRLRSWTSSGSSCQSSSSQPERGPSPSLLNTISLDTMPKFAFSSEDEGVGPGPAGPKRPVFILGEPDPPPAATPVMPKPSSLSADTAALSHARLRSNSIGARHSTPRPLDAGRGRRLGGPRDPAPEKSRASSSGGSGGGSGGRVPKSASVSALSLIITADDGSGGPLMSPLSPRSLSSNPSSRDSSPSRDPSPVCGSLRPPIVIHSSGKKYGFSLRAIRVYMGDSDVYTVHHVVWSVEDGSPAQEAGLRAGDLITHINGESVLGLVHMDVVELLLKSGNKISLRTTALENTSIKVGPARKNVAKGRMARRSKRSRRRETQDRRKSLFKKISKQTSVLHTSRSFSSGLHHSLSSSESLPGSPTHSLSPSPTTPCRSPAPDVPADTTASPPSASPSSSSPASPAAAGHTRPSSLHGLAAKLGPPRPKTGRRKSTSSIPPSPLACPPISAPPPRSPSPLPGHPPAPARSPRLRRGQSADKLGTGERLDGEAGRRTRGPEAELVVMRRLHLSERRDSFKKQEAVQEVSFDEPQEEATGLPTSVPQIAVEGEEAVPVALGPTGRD

[4] = target: Serine/threonine-protein kinase B-raf (Homo sapiens, UniProt P15056); test: Inhibition of BRAF K2 labeling site in human Huh-7 cells at 10 uM by KiNativ Profiling analysis relative to control; type: cell-based
[5] = target: Cyclin-dependent kinase 17 (Homo sapiens) (UniProt Q00537); test: Inhibition of PCTAIRE2 K2 labeling site in human Huh-7 cells at 10 uM by KiNativ Profiling analysis relative to control; type: cell-based
Chain of Cyclin-dependent kinase 17 (Homo sapiens) (Q00537 whole entry, looked up): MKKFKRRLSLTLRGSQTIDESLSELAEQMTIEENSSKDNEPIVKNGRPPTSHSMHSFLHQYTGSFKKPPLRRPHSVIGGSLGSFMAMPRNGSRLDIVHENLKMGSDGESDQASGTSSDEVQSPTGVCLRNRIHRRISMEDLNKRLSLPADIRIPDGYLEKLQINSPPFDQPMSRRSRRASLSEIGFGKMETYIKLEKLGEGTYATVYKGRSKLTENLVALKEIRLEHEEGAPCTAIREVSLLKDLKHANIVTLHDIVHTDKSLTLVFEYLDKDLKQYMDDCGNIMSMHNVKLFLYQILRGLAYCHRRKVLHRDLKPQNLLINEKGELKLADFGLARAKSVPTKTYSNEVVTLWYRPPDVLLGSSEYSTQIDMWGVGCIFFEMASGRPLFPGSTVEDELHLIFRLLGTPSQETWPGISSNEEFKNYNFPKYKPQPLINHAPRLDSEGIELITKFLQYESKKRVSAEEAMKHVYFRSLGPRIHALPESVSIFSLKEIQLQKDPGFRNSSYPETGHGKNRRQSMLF

[6] = target: AMPK alpha1/alpha2 (Homo sapiens) (UniProt P54646+Q13131); test: Inhibition of AMPK alpha 1/2 K1 labeling site in human Huh-7 cells at 1 uM by KiNativ Profiling analysis relative to control; type: cell-based
[7] = Inhibition of KHS1/2 K2 labeling site in human Huh-7 cells at 1 uM by KiNativ Profiling analysis relative to control; conditions: condition cancer
[8] = target: Peripheral plasma membrane protein CASK (Homo sapiens) (UniProt O14936); test: Inhibition of CASK K1 labeling site in human Huh-7 cells at 1 uM by KiNativ Profiling analysis relative to control
Chain of Peripheral plasma membrane protein CASK (Homo sapiens) (O14936 whole entry, looked up): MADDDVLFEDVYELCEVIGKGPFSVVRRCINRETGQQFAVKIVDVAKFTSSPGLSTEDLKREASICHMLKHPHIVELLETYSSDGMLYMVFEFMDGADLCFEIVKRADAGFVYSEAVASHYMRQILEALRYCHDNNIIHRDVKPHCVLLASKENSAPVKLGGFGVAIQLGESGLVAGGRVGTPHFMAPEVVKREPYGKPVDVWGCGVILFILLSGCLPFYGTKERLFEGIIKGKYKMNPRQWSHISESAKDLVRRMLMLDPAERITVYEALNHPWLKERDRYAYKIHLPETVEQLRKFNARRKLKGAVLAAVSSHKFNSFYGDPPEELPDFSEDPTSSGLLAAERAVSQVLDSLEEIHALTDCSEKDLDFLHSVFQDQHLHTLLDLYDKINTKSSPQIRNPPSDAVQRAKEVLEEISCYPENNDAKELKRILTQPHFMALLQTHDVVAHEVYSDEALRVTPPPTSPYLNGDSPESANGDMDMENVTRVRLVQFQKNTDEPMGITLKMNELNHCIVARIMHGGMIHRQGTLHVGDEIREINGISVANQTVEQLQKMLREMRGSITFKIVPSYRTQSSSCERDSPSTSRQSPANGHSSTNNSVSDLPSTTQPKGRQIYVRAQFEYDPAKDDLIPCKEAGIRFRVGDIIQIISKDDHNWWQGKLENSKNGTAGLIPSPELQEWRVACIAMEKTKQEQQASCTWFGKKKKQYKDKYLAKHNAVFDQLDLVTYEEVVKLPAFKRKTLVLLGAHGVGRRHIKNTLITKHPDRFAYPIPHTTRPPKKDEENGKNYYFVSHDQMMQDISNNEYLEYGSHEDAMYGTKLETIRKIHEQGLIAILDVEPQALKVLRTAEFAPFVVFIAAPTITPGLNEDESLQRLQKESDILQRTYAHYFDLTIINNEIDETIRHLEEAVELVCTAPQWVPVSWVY

[9] = target: Cyclin-dependent kinase 14 (Homo sapiens) (UniProt O94921); test: Inhibition of PFTAIRE1 Lys2 labeling site in human A-375 cells at 0.05 uM by KiNativ Profiling analysis relative to control
Chain of Cyclin-dependent kinase 14 (Homo sapiens) (O94921 whole entry, looked up): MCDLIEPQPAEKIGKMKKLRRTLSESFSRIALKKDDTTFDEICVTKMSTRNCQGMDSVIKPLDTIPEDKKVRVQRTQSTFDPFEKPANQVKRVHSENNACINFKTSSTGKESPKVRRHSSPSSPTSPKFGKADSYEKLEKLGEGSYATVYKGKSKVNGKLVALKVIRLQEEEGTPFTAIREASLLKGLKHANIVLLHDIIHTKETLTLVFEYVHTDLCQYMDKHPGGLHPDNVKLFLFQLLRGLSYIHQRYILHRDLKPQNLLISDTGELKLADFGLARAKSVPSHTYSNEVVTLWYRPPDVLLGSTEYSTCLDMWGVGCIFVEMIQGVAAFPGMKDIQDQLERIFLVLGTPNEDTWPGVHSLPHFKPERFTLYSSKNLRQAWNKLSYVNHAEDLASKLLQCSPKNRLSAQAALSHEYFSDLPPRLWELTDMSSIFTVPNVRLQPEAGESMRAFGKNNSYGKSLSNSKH

[10] = target: Platelet-derived growth factor receptor beta (Homo sapiens) (UniProt P09619); test: Inhibition of PDGFRB (unknown origin) at 1 uM by Ambit Kinomescan binding assay relative to control
[11] = target: Serine/threonine-protein kinase MRCK beta (Homo sapiens) (UniProt Q9Y5S2); test: Inhibition of MRCKb in human A-375 cells at 5 uM by KiNativ Profiling analysis relative to control; type: cell-based
[12] = target: Serine/threonine-protein kinase 38 (Homo sapiens) (UniProt Q15208); test: Inhibition of NDR1 Lys2 labeling site in human A-375 cells at 5 uM by KiNativ Profiling analysis relative to control; type: cell-based
Chain of Serine/threonine-protein kinase 38 (Homo sapiens) (Q15208 2-465 limits assumed): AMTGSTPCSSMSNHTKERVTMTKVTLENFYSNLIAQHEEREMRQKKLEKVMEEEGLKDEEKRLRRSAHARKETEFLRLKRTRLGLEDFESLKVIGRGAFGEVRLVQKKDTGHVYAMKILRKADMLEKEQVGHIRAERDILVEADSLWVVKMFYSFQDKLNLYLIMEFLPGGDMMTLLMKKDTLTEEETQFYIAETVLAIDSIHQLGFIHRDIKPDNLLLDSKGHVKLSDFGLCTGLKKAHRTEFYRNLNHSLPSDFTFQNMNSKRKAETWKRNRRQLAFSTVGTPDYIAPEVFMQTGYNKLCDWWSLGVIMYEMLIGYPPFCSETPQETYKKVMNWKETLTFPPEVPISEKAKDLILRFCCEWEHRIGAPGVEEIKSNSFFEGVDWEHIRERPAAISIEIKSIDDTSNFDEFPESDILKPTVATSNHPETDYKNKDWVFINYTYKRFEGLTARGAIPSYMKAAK

[13] = target: T1, Serine/threonine-protein kinase TAO1 (Homo sapiens) (UniProt Q7L7X3); test: Inhibition of TAO1 Lys2 labeling site in human A-375 cells at 5 uM by KiNativ Profiling analysis relative to control; type: cell-based
T1 sequence (whole entry): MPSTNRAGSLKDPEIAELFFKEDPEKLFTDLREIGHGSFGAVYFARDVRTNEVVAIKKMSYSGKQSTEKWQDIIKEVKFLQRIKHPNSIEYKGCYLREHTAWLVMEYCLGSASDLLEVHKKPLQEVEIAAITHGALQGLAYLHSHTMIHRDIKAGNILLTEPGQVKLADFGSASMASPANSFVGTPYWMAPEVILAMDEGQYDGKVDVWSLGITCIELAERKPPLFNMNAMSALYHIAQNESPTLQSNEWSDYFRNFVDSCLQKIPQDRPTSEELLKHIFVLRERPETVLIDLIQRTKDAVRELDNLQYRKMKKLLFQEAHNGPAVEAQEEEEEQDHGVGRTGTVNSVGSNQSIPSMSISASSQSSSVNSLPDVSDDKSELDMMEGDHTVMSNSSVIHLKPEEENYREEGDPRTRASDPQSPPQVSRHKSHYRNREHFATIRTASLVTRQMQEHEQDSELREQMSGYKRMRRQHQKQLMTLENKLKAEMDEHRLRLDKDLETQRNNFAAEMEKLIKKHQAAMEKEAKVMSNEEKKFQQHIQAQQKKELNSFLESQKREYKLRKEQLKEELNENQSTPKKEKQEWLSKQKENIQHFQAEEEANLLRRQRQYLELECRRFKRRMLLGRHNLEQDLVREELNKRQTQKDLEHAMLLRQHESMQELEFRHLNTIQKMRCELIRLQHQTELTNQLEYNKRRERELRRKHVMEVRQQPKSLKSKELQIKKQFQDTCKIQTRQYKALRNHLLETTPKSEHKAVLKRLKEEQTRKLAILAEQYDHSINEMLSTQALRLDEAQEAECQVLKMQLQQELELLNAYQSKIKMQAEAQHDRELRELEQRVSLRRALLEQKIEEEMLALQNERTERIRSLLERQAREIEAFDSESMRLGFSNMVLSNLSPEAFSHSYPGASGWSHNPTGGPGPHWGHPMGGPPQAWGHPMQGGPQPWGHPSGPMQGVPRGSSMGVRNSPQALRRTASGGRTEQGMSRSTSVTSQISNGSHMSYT

[14] = target: T2, Interleukin-1 receptor-associated kinase 4 (Homo sapiens) (UniProt Q9NWZ3); test: Inhibition of IRAK4 Lys2 labeling site in human A-375 cells at 0.5 uM by KiNativ Profiling analysis relative to control; type: cell-based
T2 sequence (whole entry): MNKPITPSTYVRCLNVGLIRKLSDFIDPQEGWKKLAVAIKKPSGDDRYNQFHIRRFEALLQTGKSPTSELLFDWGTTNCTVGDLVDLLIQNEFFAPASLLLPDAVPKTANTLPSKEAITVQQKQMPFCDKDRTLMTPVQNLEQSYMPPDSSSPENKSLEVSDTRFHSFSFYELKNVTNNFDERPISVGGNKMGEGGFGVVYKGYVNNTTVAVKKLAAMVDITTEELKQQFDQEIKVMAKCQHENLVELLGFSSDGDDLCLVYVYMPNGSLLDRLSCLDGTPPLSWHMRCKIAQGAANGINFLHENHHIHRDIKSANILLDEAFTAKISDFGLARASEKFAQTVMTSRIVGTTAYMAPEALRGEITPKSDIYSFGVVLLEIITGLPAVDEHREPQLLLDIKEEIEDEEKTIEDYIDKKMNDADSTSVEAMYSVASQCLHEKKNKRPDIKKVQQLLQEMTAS

[15] = target: Tyrosine-protein kinase Yes (Homo sapiens) (UniProt P07947); test: Inhibition of YES ACT labeling site in human A-375 cells at 0.05 uM by KiNativ Profiling analysis relative to control; type: cell-based
Chain of Tyrosine-protein kinase Yes (Homo sapiens) (P07947 2-543 limits assumed): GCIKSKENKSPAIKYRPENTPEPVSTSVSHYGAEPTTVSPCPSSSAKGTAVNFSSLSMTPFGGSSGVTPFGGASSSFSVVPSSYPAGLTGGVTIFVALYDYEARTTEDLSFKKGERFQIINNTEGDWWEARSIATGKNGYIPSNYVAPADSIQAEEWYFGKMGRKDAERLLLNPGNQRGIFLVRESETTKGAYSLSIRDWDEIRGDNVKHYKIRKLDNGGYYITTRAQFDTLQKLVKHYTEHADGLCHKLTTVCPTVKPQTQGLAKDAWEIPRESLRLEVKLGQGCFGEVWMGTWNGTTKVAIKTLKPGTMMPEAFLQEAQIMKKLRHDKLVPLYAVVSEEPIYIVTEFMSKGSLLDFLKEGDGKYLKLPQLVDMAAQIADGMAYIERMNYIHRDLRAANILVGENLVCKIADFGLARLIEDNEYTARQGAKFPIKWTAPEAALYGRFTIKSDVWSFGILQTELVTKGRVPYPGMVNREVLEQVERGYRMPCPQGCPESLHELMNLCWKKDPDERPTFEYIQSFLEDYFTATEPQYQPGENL

[16] = target: Cyclin-dependent kinase 2 (Homo sapiens) (UniProt P24941); test: Inhibition of CDK2 Lys1 labeling site in human Huh-7 cells at 1 uM by KiNativ Profiling analysis relative to control; type: cell-based
[17] = Inhibition of p70S6K Lys2 labeling site in human Huh-7 cells at 1 uM by KiNativ Profiling analysis relative to control; conditions: condition cancer
[18] = target: Serine/threonine-protein kinase 32C (Homo sapiens) (UniProt Q86UX6); test: Inhibition of YANK3 Lys2 labeling site in human Huh-7 cells at 1 uM by KiNativ Profiling analysis relative to control; type: cell-based

## CCN1CCN(Cc2ccc(NC(=O)c3ccc(C)c(Oc4ccnc5[nH]ccc45)c3)cc2C(F)(F)F)CC1
[1]
  inhibition: inactive
[2]
  inhibition: 16%
[3]
  inhibition: 2.5%
[4]
  inhibition: 5.2%
[5]
  inhibition: 41.7%
[6]
  inhibition: 29.8%
[7]
  inhibition at 1 µM: 6.6%
[8]
  inhibition: 3.8%
[9]
  inhibition: 0.6%

## CCN1CCN(Cc2ccc(NC(=O)c3ccc(C)c(/C=C/c4cnc5[nH]ccc5c4OC)c3)cc2C(F)(F)F)CC1
[10]
  inhibition: 0.1%
[11]
  inhibition: 8.4%
[12]
  inhibition: 25.3%
[13]
  inhibition: 66.2%
[14]
  inhibition: 10.3%
[15]
  inhibition: 38.9%

## CNc1cc(Oc2cc(C(=O)Nc3cc(N4CCN(C)CC4)cc(C(F)(F)F)c3)ccc2C)ncn1
[16]
  inhibition: -5.7%
[17]
  inhibition at 1 µM: -110%
[18]
  inhibition: 12.2%
